Experiments:
[1] = tested on: isolated pancreatic islets; assay: Glucose-dependent insulin secretion of isolated islets after in vivo MnCl2:Bicine (radioimmunoassay); set-up: species or system mice
Description: The chronic exposure to high concentrations of Mn can potentially lead to cytotoxic effects on heart, liver and brain [26]. We hypothesized that the early and late retention of Mn might impair the physiological integrity of the glucose-dependent insulin response of islet cells. To investigate the physiological function of the islets, glucose-dependent insulin secretion was measured in vitro 1 or 24 h after a single systemic in vivo administration of MnCl2:Bicine solution (75 µmol/kg) on a new group of mice (Table. 1, Group 4). Secretion assays were performed on isolated islets, followed by quantification of insulin content using radioimmunoassay. The response to glucose of each individual mouse was assessed by calculating the enhancement of insulin secretion between basal (3 mM) and stimulating glucose concentration (15 mM).
Before the isolation of islets, control and RIP1-Tag2 mice previously anesthetized using 1-2% isoflurane/O2 gas mixture (Vetland, Louisville, KY, USA) and intravenously injected with a bolus of MnCl2:Bicine solution (75 µmol/kg), analogously to the in vivo imaging protocol. […] The content of insulin in the supernatant was determined by radioimmunoassay using as insulin standards Millipore 8013-K (Merck, Darmstadt, DE). […]

[2] = LA-ICP-MS imaging of ^55Mn in pancreas sections, cross-validated with autoradiography; assay type: in vivo, mice
Description: The whole pancreata from control and transgenic RIP1-Tag2 mice were isolated after cervical dislocation under anesthesia. Then, the whole pancreata were embedded in O.C.T. (optimum cutting temperature) embedding compound (Sakura, Zoeterwonde, NL) and snap frozen at -20 °C. Subsequently, serial 20 µm cryosections were obtained using a Cryostat (Leica 1850, Leica GmbH, Wetzlar, DE) and exposed to a 35×43 cm Storage Phosphor Screen (445SI, Molecular Dynamics, Sunnyvale, CA, USA) at room temperature for 24 h and 48 h for animals sacrificed at 1 h and 24 h, respectively. Scanning of the phosphor imaging plate was performed using a Storm 840 scanner (STORM 840, Amersham Biosciences, Amersham, UK) with a spatial resolution of 50x50 µm^2 and analyzed using ImageJ software (US NIH, Bethesda, Maryland, USA). Thus, we calculated the main effect of the PET tracer uptake, expressed as islet-to-exocrine ratio to estimate the islet diameter identified as single spots throughout the pancreas sections in both groups (Fig. S3).
The autoradiography slides were scanned line-by-line at 60 µm laser spot size using an NWR 213 laser ablation system (New Wave Research, Fremont, CA, USA). […] The isotopes ^44Ca, ^65Cu, ^64Zn,^ 55Mn, ^13C were monitored among the exocrine and the endocrine tissue in the healthy and insulinoma mice. […]

effect of contrast agent accumulation on glucose-dependent insulin secretion response ([1]; islets isolated 1 h and 24 h after single i.v. 75 µmol/kg, 8-wk old control and RIP1-Tag2 mice): not affected | enhancement of insulin secretion, stimulating (15 mM) vs basal (3 mM) glucose ([1]; islets of 8-wk old control and RIP1-Tag2 mice isolated 1 or 24 h after single i.v. 75 µmol/kg, radioimmunoassay, n=3/3): 10-20 times
Substance: MnCl2:Bicine
spatial distribution of exogenous ^55Mn in pancreas sections ([2]; 1 h after injection, merged elemental images of ^55Mn, ^44Ca, ^64Zn, control and 13-wk RIP1-Tag2 mice): higher concentration of ^55Mn in the exocrine pancreas | spatial distribution of exogenous ^55Mn in pancreas sections ([2]; 24 h after injection, control and RIP1-Tag2 mice): only low levels of ^55Mn were found in the exocrine pancreas
